What was measured:
[1] = target: T1, glucosyltransferase 72E1 (UGT72E1) (Arabidopsis thaliana, UniProt Q94A84); experiment: Glucosyltransferase activity assay with recombinant UGT72E1, HPLC analysis; format: biochemical; conditions: substrate glucosylation; 2 μg enzyme, 1 mM phenolic substrate, 5 mM UDP-glucose, 100 mM Tris-HCl pH 7.0, 30° C., 1 h; HPLC peak area
T1 construct: made in house; host or cells: E. coli
T1 sequence (Q94A84 1-487): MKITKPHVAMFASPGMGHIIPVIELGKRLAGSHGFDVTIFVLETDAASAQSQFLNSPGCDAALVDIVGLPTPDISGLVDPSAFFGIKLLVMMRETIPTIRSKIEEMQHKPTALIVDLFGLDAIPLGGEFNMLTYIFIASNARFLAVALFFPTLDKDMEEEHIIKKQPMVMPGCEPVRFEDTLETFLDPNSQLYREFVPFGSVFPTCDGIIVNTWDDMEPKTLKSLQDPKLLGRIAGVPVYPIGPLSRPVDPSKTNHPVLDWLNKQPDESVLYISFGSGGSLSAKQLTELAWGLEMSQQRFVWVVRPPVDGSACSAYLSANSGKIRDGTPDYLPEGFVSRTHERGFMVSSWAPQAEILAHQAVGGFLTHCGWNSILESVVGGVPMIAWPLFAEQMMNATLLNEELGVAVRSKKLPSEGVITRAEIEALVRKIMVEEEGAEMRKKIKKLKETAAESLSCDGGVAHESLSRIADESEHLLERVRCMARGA
Procedure: Recombinant UGT72E1 was expressed and purified from E. coli as described previously (Lim et al., 2001, J. Biol. Chem. 276, 4344-4349). The enzyme (2 μg) was incubated with 1 mM phenolic substrates, 5 mM UDP-glucose, 100 mM Tris-HCl, pH 7.0 in a total volume 200 μl. The reaction mix was incubated at 30° C. for 1 h and was analysed using HPLC subsequently.
Coniferyl alcohol: 10-25% acetonitrile (0.1% TFA), 306 nm Sinapyl alcohol: 10-25% acetonitrile (0.1% TFA), 285 nm p-coumaryl alcohol: 10-25% acetonitrile (0.1% TFA), 311 nm coniferyl aldehyde: 10-47% acetonitrile (0.1% TFA), 311 nm sinapyl aldehyde: 10-47% acetonitrile (0.1% TFA), 280 nm p-coumaryl aldehyde: 10-47% acetonitrile (0.1% TFA), 315 nm

[2] = target: T2, glucosyltransferase 72E2 (UGT72E2) (Arabidopsis thaliana, UniProt Q9LVR1); experiment: Glucosyltransferase activity assay with 72E2, HPLC analysis; format: biochemical; conditions: substrate glucosylation; HPLC peak area; conditions for UGT72E1: 1 mM substrate, 5 mM UDP-glucose, pH 7.0, 30° C., 1 h
T2 sequence (Q9LVR1 1-481): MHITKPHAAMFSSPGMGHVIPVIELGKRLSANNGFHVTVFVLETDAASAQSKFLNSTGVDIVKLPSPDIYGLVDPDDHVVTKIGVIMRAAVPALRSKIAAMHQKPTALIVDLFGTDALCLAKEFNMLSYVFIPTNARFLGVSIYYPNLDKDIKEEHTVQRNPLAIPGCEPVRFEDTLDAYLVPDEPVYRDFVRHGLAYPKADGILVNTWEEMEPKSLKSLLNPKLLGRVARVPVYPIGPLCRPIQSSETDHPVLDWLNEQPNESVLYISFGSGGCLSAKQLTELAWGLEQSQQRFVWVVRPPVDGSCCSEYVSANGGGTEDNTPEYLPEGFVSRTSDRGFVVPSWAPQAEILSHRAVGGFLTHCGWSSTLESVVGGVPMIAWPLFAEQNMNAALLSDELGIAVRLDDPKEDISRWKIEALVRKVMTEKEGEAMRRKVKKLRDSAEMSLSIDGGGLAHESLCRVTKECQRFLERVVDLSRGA

Row | Activity (area, uv × sec) 72E1 [1] | Activity (area, uv × sec) 72E2 [2] | SMILES
1 | 0 uv × sec | 3339410 uv × sec | COc1cc(/C=C/CO)cc(OC)c1O [Sinapyl alcohol]
2 | 3225766 uv × sec | 29756923 uv × sec | COc1cc(/C=C/CO)ccc1O [Coniferyl alcohol]
3 | 21950129 uv × sec | 5068215 uv × sec | COc1cc(/C=C/C=O)ccc1O [Coniferyl aldehyde]
4 | 0 uv × sec | 0 uv × sec | OC/C=C/c1ccc(O)cc1 [p-coumaryl alcohol]
5 | 13655427 uv × sec | 37002362 uv × sec | COc1cc(/C=C/C=O)cc(OC)c1O [Sinapyl aldehyde]

Row | SMILES | Activity (area, uv × sec) 72E1 [1] | Activity (area, uv × sec) 72E2 [2]
6 | O=C/C=C/c1ccc(O)cc1 [p-coumaryl aldehyde] | 9243651 uv × sec | 2612331 uv × sec

From patent publication US20100181035A1, “GLUCOSYLTRANSFERASES” (UNIVERSITY OF YORK, priority 2003, published 2010)
